Results published in ChEMBL document CHEMBL5579899, “Discovery and In Vivo Exploration of 1,3,4-Oxadiazole and α-Fluoroacrylate Containing IL-17 Inhibitors” (J Med Chem, 2024).
Values after ≈ are worked out from the molar mass of the structure shown.

Columns and labels:
[1] = Half life in C57BL/6 mouse at 1 mg/kg,iv or 3 mg/kg,po measured upto 24 hrs by LC-MS/MS analysis; type: ADME, organism-based; settings: in vivo
[2] = Lipophilicity, logD of compound at pH 7.4; type: physicochemical; settings: buffer
[3] = Metabolic stability in dog liver microsomes assessed as intrinsic clearance; type: ADME, Canis lupus familiaris, Microsome; settings: read-out: CLH
[4] = Toxicity in dog assessed as maximal tolerated dose administrated for 2 weeks; parameters: species or system Canis lupus familiaris; settings: in vivo
[5] = Volume of distribution at steady state in C57BL/6 mouse at 1 mg/kg,iv or 3 mg/kg,po measured upto 24 hrs by LC-MS/MS analysis; type: ADME, organism-based; settings: in vivo, read-out: Vdss
[6] = Oral bioavailability in Sprague-Dawley rat at 3 mg/kg measured upto 24 hrs by LC-MS/MS analysis; type: ADME, organism-based; settings: in vivo, po, 3 mg/kg, 24 h
[7] = biological target: T1, Muscarinic acetylcholine receptor M2 (Homo sapiens, UniProt P08172); test: Inhibition of muscarinic M2 receptor (unknown origin); type: toxicity
T1 sequence (P08172 whole entry): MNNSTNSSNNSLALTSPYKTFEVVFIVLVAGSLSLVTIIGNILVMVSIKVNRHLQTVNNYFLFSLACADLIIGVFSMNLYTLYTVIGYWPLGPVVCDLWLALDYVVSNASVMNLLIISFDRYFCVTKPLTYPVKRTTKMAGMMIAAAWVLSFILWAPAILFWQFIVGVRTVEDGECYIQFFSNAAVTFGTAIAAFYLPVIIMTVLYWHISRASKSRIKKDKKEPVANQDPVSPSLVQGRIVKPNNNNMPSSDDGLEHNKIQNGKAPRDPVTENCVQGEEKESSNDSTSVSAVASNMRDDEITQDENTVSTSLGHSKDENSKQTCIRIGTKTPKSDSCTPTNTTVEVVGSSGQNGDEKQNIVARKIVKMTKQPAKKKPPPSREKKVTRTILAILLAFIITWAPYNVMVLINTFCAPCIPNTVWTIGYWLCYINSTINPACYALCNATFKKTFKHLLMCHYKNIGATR

[8] = AUClast in C57BL/6 mouse at 3 mg/kg,po measured upto 24 hrs by LC-MS/MS analysis; type: ADME, organism-based; settings: in vivo
[9] = Oral bioavailability in C57BL/6 mouse at 3 mg/kg measured upto 24 hrs by LC-MS/MS analysis; type: ADME, organism-based; settings: in vivo
[10] = Oral bioavailability in Beagle dog at 0.3 mg/kg measured upto 24 hrs by LC-MS/MS analysis; type: ADME, organism-based, Canis lupus familiaris; settings: in vivo
[11] = AUC in Sprague-Dawley rat at 3 mg/kg,po measured upto 24 hrs by LC-MS/MS analysis; type: ADME, organism-based; settings: in vivo, po, 3 mg/kg, 24 h
[12] = Equilibrium solubility of compound […] at pH 6.8 by high-throughput analysis; type: physicochemical
[13] = Plasma protein binding in rat assessed as unbound fraction; type: ADME, cell-free
[14] = biological target: Bile salt export pump (Homo sapiens, UniProt O95342); test: Inhibition of BSEP (unknown origin); type: toxicity
Sequence of Bile salt export pump (O95342 whole entry): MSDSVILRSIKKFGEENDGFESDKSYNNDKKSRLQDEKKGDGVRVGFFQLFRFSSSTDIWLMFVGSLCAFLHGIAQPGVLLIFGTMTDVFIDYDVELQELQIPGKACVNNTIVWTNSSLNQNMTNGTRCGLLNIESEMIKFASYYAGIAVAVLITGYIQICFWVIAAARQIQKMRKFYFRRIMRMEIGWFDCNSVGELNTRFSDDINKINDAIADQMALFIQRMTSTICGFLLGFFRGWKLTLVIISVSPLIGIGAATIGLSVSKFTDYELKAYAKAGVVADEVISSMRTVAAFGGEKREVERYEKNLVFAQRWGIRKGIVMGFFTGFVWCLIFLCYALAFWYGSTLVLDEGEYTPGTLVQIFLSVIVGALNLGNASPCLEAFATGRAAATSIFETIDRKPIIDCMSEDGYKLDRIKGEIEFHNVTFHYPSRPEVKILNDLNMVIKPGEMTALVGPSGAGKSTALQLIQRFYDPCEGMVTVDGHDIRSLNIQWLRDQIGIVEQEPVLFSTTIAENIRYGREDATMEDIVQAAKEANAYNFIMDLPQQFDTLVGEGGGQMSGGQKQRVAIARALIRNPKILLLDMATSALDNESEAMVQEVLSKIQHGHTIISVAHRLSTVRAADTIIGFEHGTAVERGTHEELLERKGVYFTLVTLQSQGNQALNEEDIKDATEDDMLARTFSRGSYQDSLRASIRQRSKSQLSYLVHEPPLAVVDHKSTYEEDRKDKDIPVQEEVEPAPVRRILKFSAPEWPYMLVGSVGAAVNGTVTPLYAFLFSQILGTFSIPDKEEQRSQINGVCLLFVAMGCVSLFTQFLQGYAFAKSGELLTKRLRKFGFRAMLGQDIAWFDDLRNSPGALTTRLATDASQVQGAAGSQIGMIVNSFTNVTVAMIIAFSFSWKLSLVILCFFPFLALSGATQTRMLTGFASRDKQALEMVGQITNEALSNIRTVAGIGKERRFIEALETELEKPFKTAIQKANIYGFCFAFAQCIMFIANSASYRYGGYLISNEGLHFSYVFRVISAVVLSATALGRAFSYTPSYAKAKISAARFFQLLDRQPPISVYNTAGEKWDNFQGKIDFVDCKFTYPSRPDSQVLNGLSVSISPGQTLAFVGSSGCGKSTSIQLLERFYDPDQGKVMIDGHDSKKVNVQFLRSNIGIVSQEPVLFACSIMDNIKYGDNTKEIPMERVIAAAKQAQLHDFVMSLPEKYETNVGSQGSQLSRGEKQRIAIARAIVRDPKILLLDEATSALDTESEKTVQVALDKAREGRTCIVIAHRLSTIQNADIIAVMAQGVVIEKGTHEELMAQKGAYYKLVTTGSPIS

[15] = test system: Rattus norvegicus; test: Antiarthritic activity in antigen-induced arthritis Lewis rat model assessed as reduction in knee swelling at 30 mg/kg,po bid administrated for 4 days; type: functional; parameters: scale not given: the % may be the effect or the level left; settings: time 4 day
[16] = Metabolic stability in human hepatocyte assessed as clearance measured per million cells; type: ADME, cell-based; settings: hepatocytes
[17] = Inhibition of biotinylated human IL-17A/AF647-labeled human IL-17RA protein-protein interaction preincubated for 30 mins with compound followed by addition of AF647-labeled human IL-17RA incubated for 90 min by TR-FRET assay
[18] = Volume of distribution at steady state in Beagle dog at 0.1 mg/kg,iv or 0.3 mg/kg,po measured upto 24 hrs by LC-MS/MS analysis; type: ADME, organism-based, Canis lupus familiaris; settings: in vivo, read-out: Vdss
[19] = Apparent permeability coefficient of the compound across apical to basolateral side in dog MDCK cells by high-throughput analysis; type: ADME, cell-based, Canis lupus familiaris
[20] = Toxicity in dog assessed as increase in serum liver enzyme at 200 mg/kg administrated for 2 weeks; type: organism-based, Canis lupus familiaris; settings: in vivo, 336 h
[21] = Testicular toxicity in rat at >=100 mg/kg administration for 2 weeks; type: organism-based; settings: in vivo, 336 h
[22] = Plasma protein binding in dog assessed as unbound fraction; type: ADME, cell-free, Canis lupus familiaris
[23] = Toxicity in rat assessed as maximal tolerated dose administrated for 2 weeks; settings: in vivo
[24] = Metabolic stability in rat liver microsomes assessed as intrinsic clearance; type: ADME, Microsome; settings: read-out: CLH
[25] = Metabolic stability in rat hepatocyte assessed as clearance measured per million cells; type: ADME, cell-based; settings: hepatocytes
[26] = GSH reactivity in aqueous buffer at pH 7.4 assessed as GSH-adduct formation by measuring half life; type: physicochemical
[27] = test system: Rattus norvegicus; test: Antiarthritic activity in antigen-induced arthritis Lewis rat model assessed as reduction in knee swelling at 1 mg/kg,po bid administrated for 4 days; type: functional; parameters: scale not given: the % may be the effect or the level left; settings: time 4 day
[28] = Metabolic stability in human liver microsomes assessed as intrinsic clearance; type: ADME, Microsome; settings: read-out: CLH
[29] = Metabolic stability in dog hepatocyte assessed as clearance measured per million cells; type: ADME, cell-based, Canis lupus familiaris; settings: hepatocytes
[30] = Inhibition of CXCL1 production in IL-17A stimulated rat IEC-6 cells assessed as fold change in inhibition of CXCL1 release; type: functional
[31] = Toxicity in dog at >=200 mg/kg,administrated for 2 weeks; type: organism-based, Canis lupus familiaris; settings: in vivo, 336 h
[32] = Half life in Beagle dog at 0.1 mg/kg,iv or 0.3 mg/kg,po measured upto 24 hrs by LC-MS/MS analysis; type: ADME, organism-based, Canis lupus familiaris; settings: in vivo
[33] = Plasma protein binding in human assessed as unbound fraction; type: ADME, cell-free
[34] = Plasma protein binding in mouse assessed as unbound fraction; type: ADME, cell-free
[35] = AUClast in Sprague-Dawley rat at 3 mg/kg,po measured upto 24 hrs by LC-MS/MS analysis; type: ADME, organism-based; settings: in vivo
[36] = Testicular toxicity in dog >=75 mg/kg administration for 2 weeks; type: organism-based, Canis lupus familiaris; settings: in vivo, 336 h
[37] = Half life in Sprague-Dawley rat at 1 mg/kg,iv or 3 mg/kg,po measured upto 24 hrs by LC-MS/MS analysis; type: ADME, organism-based; settings: in vivo
[38] = AUClast in Beagle dog at 0.3 mg/kg,po measured upto 24 hrs by LC-MS/MS analysis; type: ADME, organism-based, Canis lupus familiaris; settings: in vivo
[39] = Volume of distribution at steady state in Sprague-Dawley rat at 1 mg/kg,iv or 3 mg/kg,po measured upto 24 hrs by LC-MS/MS analysis; type: ADME, organism-based; settings: in vivo, read-out: Vdss
[40] = Metabolic stability in mouse liver microsomes assessed as intrinsic clearance; type: ADME, Microsome; settings: read-out: CLH
[41] = Inhibition of IL-6 production in IL-17/TNF-alpha stimulated human NHDF cells incubated for 24 hrs by ELISA; type: functional, cell-based
[42] = test system: Rattus norvegicus; test: Antiarthritic activity in antigen-induced arthritis Lewis rat model assessed as reduction in knee swelling at po bid administrated for 4 days; type: functional, organism-based; settings: time 4.0 day
[43] = Toxicity in dog assessed as morphological change in liver at 200 mg/kg administrated for 2 weeks; type: organism-based, Canis lupus familiaris; settings: in vivo, 336 h
[44] = biological target: T2, Solute carrier organic anion transporter family member 1B1 (Homo sapiens, UniProt Q9Y6L6); test: Inhibition of OATP1B1 (unknown origin); type: toxicity
T2 sequence (Q9Y6L6 whole entry): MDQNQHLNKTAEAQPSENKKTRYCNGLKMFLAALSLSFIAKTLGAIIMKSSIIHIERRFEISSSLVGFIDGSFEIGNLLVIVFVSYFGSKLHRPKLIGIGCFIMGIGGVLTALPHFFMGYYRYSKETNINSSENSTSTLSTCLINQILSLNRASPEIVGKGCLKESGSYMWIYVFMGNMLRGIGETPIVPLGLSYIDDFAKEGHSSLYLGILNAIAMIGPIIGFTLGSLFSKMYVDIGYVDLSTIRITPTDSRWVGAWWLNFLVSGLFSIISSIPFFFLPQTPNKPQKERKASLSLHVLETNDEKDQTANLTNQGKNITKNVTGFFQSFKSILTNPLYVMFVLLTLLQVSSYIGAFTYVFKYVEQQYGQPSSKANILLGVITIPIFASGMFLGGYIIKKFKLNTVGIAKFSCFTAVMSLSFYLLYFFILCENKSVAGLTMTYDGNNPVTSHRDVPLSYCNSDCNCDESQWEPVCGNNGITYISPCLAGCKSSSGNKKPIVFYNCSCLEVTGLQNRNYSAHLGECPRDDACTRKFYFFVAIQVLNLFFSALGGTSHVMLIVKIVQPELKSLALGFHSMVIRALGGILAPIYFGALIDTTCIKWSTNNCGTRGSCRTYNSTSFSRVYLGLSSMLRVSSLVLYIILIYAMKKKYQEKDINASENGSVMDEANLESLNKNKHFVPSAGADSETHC

[45] = Inhibition of CXCL1 production in IL-17A stimulated rat IEC-6 cells; type: functional

COC[C@H](c1cnn2cc([C@@H](NC(=O)/C(F)=C\C3CC3)C3CCC(F)(F)CC3)nc2c1)N1C[C@@H](C(F)(F)F)NC1=O gave a half-life [1] of 2 h, a logD [2] of 3.8 and a microsomal CLint [3] of 18 µL/min/mg. The MTD at 336 h [4] was 75 mg/kg, the Vd [5] was 3 L/kg and the F [6] was 106%. For the same compound, the IC50 [7] was 14000 nM, the AUClast [8] was 0.53 µM·h and the F [9] was 41%. It also gave an F [10] of 94%, an AUC [11] of 0.024 µM·h and a solubility [12] of 150 µM (≈ 88.3 µg/mL). It also gave a fraction unbound [13] of 0.075, an IC50 [14] of 19000 nM and an Activity [15] of 97%. For the same compound, the CLH [16] was 58 µL, the IC50 [17] was 13 nM and the Vd [18] was 3.7 L/kg. For the same compound, the Papp A→B [19] was 26 ×10⁻⁶ cm/s, the Activity [20] was “Toxic” and the Activity [21] was “Toxic”. It also gave a fraction unbound [22] of 0.062, an MTD at 336 h [23] of 1000 mg/kg and a microsomal CLint [24] of 38 µL/min/mg. It also gave a CLH [25] of 4.2 µL, a t1/2 [26] greater than 8 h and an Activity [27] of 60%. The microsomal CLint [28] was 58 µL/min/mg, the CLH [29] was 5.1 µL and the “fold change (FC)” value [30] was 9. For the same compound, the Activity [31] was “Non-Toxic”, the half-life [32] was 8.3 h and the fraction unbound [33] was 0.094. For the same compound, the fraction unbound [34] was 0.048, the AUC(0-t) at 24 h [35] was 1.58 µM·h and the Activity [36] was “Toxic”. It also gave a half-life [37] of 2.6 h, an AUClast [38] of 4.2 µM·h and a Vd [39] of 4.4 L/kg. It also gave a microsomal CLint [40] of 25 µL/min/mg, an IC50 ([41]; 24 h) of 4 nM and an IC90 ([41]; time 24 hrs) of 37 nM. The Activity [42] was “Dose-Dependent Effect”, the Activity [43] was “Toxic” and the IC50 [44] was 11000 nM. The IC90 [45] was 45 nM.
